pIC50: −log10 of the molar value.
What was measured:
[1] = test system: MIA PaCa-2 (KRAS G12C) cells; assay: Cellular pERK HTRF assay (KRAS_G12C pERK); format: cell-based, human; settings: Homo sapiens, MIA PaCa-2, 4 hours incubation, read-out: G12C_pERK
Summary of the method: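 Phospho-ERK1/2 HTRF readout (665 and 620 nm) in lysed MIA PaCa-2 cells, antibodies incubated overnight at room temperature. Cells seeded the day before and treated with G12C compounds for 4 h at 37 °C; IC50 fitted to percent inhibition against log inhibitor concentration.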

KRAS G12C = KRAS G12C (Homo sapiens, UniProt P01116, G12C); assay: GDP-GTP exchange assay (KRAS_G12C exchange); format: biochemical; settings: bodipy-GDP loaded KRAS G12C 2.5 nM, SOS1 150 nM, GppNHp; 2 hours pre-incubation, 2 hours reaction; read-out: G12C_exchange
Summary of the method: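 Fluorescence exchange of bodipy-GDP for GppNHp, SOS1-driven, read at 485/520 nm; IC50 from four-parameter variable-slope fit. Both mutants used 2.5 nM final labelled protein and a 2 h compound pre-incubation. G12C reaction had 500 uM GppNHp and 150 nM SOS1 for 2 h; G12D ran 4 h.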

Chain of KRAS G12C (P01116 1-188 isoform P01116-2 G12C): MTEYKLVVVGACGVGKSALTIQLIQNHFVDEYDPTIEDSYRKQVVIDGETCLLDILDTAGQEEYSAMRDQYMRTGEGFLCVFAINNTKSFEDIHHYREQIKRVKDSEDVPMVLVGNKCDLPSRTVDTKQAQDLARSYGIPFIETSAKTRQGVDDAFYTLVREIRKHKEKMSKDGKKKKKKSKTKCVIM

Row | Structure (SMILES) | pIC50 [1] | pIC50 (KRAS G12C)
1 | C=CC(=O)N1CC[C@H](n2nnc3c(N4CC(N(C)C)C4)nc4c(F)c(-c5ccc(F)c(C)c5C)c(Cl)cc4c32)C[C@H]1CC#N [Example 116, 2-((2S,4S)-1-acryloyl-4-(8-chloro-4-(3-(dimethylamino)azetidin-1-yl)-6-fluoro-7-(4-fluoro-2,3-dimethylphenyl)-1H-[1,2,3]triazolo[4,5-c]quinolin-1-yl)piperidin-2-yl)acetonitrile] | ≥ 7.00 | ≥ 7.00
2 | C=CC(=O)N1CC[C@H](n2nnc3c(N4CC(N(C)C)C4)nc4c(F)c(-c5ccccc5C5CC5)c(Cl)cc4c32)C[C@H]1CC#N [Example 117, 2-((2S,4S)-1-acryloyl-4-(8-chloro-7-(2-cyclopropylphenyl)-4-(3-(dimethylamino)azetidin-1-yl)-6-fluoro-1H-[1,2,3]triazolo[4,5-c]quinolin-1-yl)piperidin-2-yl)acetonitrile] | ≥ 7.00 | ≥ 7.00
3 | C=CC(=O)N1CC[C@H](n2cnc3c(N4CC(C)(N(C)C)C4)nc4c(F)c(-c5ccc(F)cc5)c(Cl)cc4c32)C[C@H]1CC#N [Example 120, 2-((2S,4S)-1-acryloyl-4-(8-chloro-4-(3-(dimethylamino)-3-methylazetidin-1-yl)-6-fluoro-7-(4-fluorophenyl)-1H-imidazo[4,5-c]quinolin-1-yl)piperidin-2-yl)acetonitrile] | ≥ 7.00 | ≥ 7.00
4 | C=CC(=O)N1CC[C@H](n2cnc3c(N4CC(C)(N(C)C)C4)nc4c(F)c(-c5ccc(F)cc5)c(C)cc4c32)C[C@H]1CC#N [Example 121, 2-((2S,4S)-1-acryloyl-4-(4-(3-(dimethylamino)-3-methylazetidin-1-yl)-6-fluoro-7-(4-fluorophenyl)-8-methyl-1H-imidazo[4,5-c]quinolin-1-yl)piperidin-2-yl)acetonitrile] | ≥ 7.00 | ≥ 7.00
5 | C=CC(=O)N1CC[C@H](n2cnc3c(O[C@@H](C)CN(C)C)nc4c(F)c(-c5ccc(F)cc5)c(Cl)cc4c32)C[C@H]1CC#N [Example 122, 2-((2S,4S)-1-acryloyl-4-(8-chloro-4-(((S)-1-(dimethyl-amino)propan-2-yl)oxy)-6-fluoro-7-(4-fluorophenyl)-1H-imidazo[4,5-c]quinolin-1-yl)piperidin-2-yl)acetonitrile] | ≥ 7.00 | ≥ 7.00
6 | C=CC(=O)N1CC[C@H](n2cnc3c(-n4ccnc4C)nc4c(F)c(-c5ccc(F)cc5)c(Cl)cc4c32)C[C@H]1CC#N [Example 123, 2-((2S,4S)-1-acryloyl-4-(8-chloro-6-fluoro-7-(4-fluorophenyl)-4-(2-methyl-1H-imidazol-1-yl)-1H-imidazo[4,5-c]quinolin-1-yl)piperidin-2-yl)acetonitrile] | ≥ 7.00 | ≥ 7.00
7 | Cc1nccn1-c1nc2c(F)c(-c3ccc(F)cc3)c(Cl)cc2c2c1ncn2[C@H]1CCN(C(=O)/C=C/CN(C)C)[C@H](CC#N)C1 [Example 124, 2-((2S,4S)-4-(8-chloro-6-fluoro-7-(4-fluorophenyl)-4-(2-methyl-1H-imidazol-1-yl)-1H-imidazo[4,5-c]quinolin-1-yl)-1-((E)-4-(dimethylamino)-but-2-enoyl)piperidin-2-yl)acetonitrile] | ≥ 7.00 | ≥ 7.00
8 | Cc1nccn1-c1nc2c(F)c(-c3ccc(F)cc3)c(Cl)cc2c2c1ncn2[C@H]1CCN(C(=O)/C=C/CF)[C@H](CC#N)C1 [Example 125, 2-((2S,4S)-4-(8-chloro-6-fluoro-7-(4-fluorophenyl)-4-(2-methyl-1H-imidazol-1-yl)-1H-imidazo[4,5-c]quinolin-1-yl)-1-((E)-4-fluorobut-2-enoyl)piperidin-2-yl)acetonitrile] | ≥ 7.00 | ≥ 7.00
9 | C=CC(=O)N1CC[C@H](n2nnc3c(N4CC(C)(N(C)C)C4)nc4c(F)c(-c5ccc(F)cc5)c(Cl)cc4c32)C[C@H]1CC#N [Example 126, 2-((2S,4S)-1-acryloyl-4-(8-chloro-4-(3-(dimethylamino)-3-methylazetidin-1-yl)-6-fluoro-7-(4-fluorophenyl)-1H-[1,2,3]triazolo[4,5-c]quinolin-1-yl)piperidin-2-yl)acetonitrile] | ≥ 7.00 | ≥ 7.00
10 | C=CC(=O)N1CC[C@H](n2nnc3c(N4CC(C)(N(C)C)C4)nc4c(F)c(-c5ccc(F)cc5)c(C)cc4c32)C[C@H]1CC#N [Example 127, 2-((2S,4S)-1-acryloyl-4-(4-(3-(dimethylamino)-3-methylazetidin-1-yl)-6-fluoro-7-(4-fluorophenyl)-8-methyl-1H-[1,2,3]triazolo[4,5-c]quinolin-1-yl)piperidin-2-yl)acetonitrile] | ≥ 7.00 | ≥ 7.00
11 | C=CC(=O)N1CC[C@H](n2nnc3c(O[C@@H](C)CN(C)C)nc4c(F)c(-c5ccc(F)cc5)c(Cl)cc4c32)C[C@H]1CC#N [Example 128, 2-((2S,4S)-1-acryloyl-4-(8-chloro-4-(((S)-1-(dimethylamino)propan-2-yl)oxy)-6-fluoro-7-(4-fluorophenyl)-1H-[1,2,3]triazolo[4,5-c]quinolin-1-yl)piperidin-2-yl)acetonitrile] | ≥ 7.00 | ≥ 7.00

Continued, values first:

Row | pIC50 [1] | pIC50 (KRAS G12C) | Structure (SMILES)
12 | ≥ 7.00 | ≥ 7.00 | C=CC(=O)N1CC[C@H](n2cnc3c(N4CC(N(C)C)C4)nc4c(F)c(-c5ccccc5C(F)(F)F)c(Cl)cc4c32)C[C@H]1CC#N [Example 106, 2-((2S,4S)-1-acryloyl-4-(8-chloro-4-(3-(dimethylamino)azetidin-1-yl)-6-fluoro-7-(2-(trifluoromethyl)phenyl)-1H-imidazo[4,5-c]quinolin-1-yl)piperidin-2-yl)acetonitrile]
13 | ≥ 7.00 | ≥ 7.00 | C=CC(=O)N1CC[C@H](n2cnc3c(N4CC(N(C)C)C4)nc4c(F)c(-c5cccc(Cl)c5Cl)c(Cl)cc4c32)C[C@H]1CC#N [Example 107, 2-((2S,4S)-1-acryloyl-4-(8-chloro-7-(2,3-dichlorophenyl)-4-(3-(dimethylamino)azetidin-1-yl)-6-fluoro-1H-imidazo[4,5-c]quinolin-1-yl)piperidin-2-yl)acetonitrile]
14 | ≥ 7.00 | ≥ 7.00 | C=CC(=O)N1CC[C@H](n2cnc3c(N4CC(N(C)C)C4)nc4c(F)c(-c5cnccc5C)c(Cl)cc4c32)C[C@H]1CC#N [Example 108, 2-((2S,4S)-1-acryloyl-4-(8-chloro-4-(3-(dimethylamino)azetidin-1-yl)-6-fluoro-7-(4-methylpyridin-3-yl)-1H-imidazo[4,5-c]quinolin-1-yl)piperidin-2-yl)acetonitrile]
15 | ≥ 7.00 | ≥ 7.00 | C=CC(=O)N1CC[C@H](n2cnc3c(N4CC(N(C)C)C4)nc4c(F)c(-c5cccc(C)c5)c(Cl)cc4c32)C[C@H]1CC#N [Example 109, 2-((2S,4S)-1-acryloyl-4-(8-chloro-4-(3-(dimethylamino)-azetidin-1-yl)-6-fluoro-7-(m-tolyl)-1H-imidazo[4,5-c]quinolin-1-yl)piperidin-2-yl)acetonitrile]
16 | ≥ 7.00 | ≥ 7.00 | C=CC(=O)N1CC[C@H](n2cnc3c(N4CC(N(C)C)C4)nc4c(F)c(-c5cncc(C)c5C)c(Cl)cc4c32)C[C@H]1CC#N [Example 110a, 2-((2S,4S)-1-acryloyl-4-(8-chloro-4-(3-(dimethylamino)-azetidin-1-yl)-7-(4,5-dimethylpyridin-3-yl)-6-fluoro-1H-imidazo[4,5-c]quinolin-1-yl)piperidin-2-yl)acetonitrile]
17 | ≥ 7.00 | ≥ 7.00 | C=CC(=O)N1CC[C@H](n2nnc3c(N4CC(N(C)C)C4)nc4c(F)c(-c5cccc(C)c5C)c(Cl)cc4c32)C[C@H]1CC#N [Example 111, 2-((2S,4S)-1-acryloyl-4-(8-chloro-4-(3-(dimethylamino)azetidin-1-yl)-7-(2,3-dimethylphenyl)-6-fluoro-1H-[1,2,3]triazolo[4,5-c]quinolin-1-yl)piperidin-2-yl)acetonitrile]
18 | ≥ 7.00 | ≥ 7.00 | C=CC(=O)N1CC[C@H](n2nnc3c(N4CC(N(C)C)C4)nc4c(F)c(-c5cccc(Cl)c5C)c(Cl)cc4c32)C[C@H]1CC#N [Example 112, 2-((2S,4S)-1-acryloyl-4-(8-chloro-7-(3-chloro-2-methylphenyl)-4-(3-(dimethylamino)azetidin-1-yl)-6-fluoro-1H-[1,2,3]triazolo[4,5-c]quinolin-1-yl)piperidin-2-yl)acetonitrile]
19 | ≥ 7.00 | ≥ 7.00 | C=CC(=O)N1CC[C@H](n2nnc3c(N4CC(N(C)C)C4)nc4c(F)c(-c5cccc(Cl)c5Cl)c(Cl)cc4c32)C[C@H]1CC#N [Example 113, 2-((2S,4S)-1-acryloyl-4-(8-chloro-7-(2,3-dichlorophenyl)-4-(3-(dimethylamino)azetidin-1-yl)-6-fluoro-1H-[1,2,3]triazolo[4,5-c]quinolin-1-yl)piperidin-2-yl)acetonitrile]
20 | ≥ 7.00 | ≥ 7.00 | C=CC(=O)N1CC[C@H](n2nnc3c(N4CC(N(C)C)C4)nc4c(F)c(-c5cccc(C)c5)c(Cl)cc4c32)C[C@H]1CC#N [Example 114, 2-((2S,4S)-1-acryloyl-4-(8-chloro-4-(3-(dimethylamino)azetidin-1-yl)-6-fluoro-7-(m-tolyl)-1H-[1,2,3]triazolo[4,5-c]quinolin-1-yl)piperidin-2-yl)acetonitrile]
21 | ≥ 7.00 | ≥ 7.00 | C=CC(=O)N1CC[C@H](n2nnc3c(N4CC(N(C)C)C4)nc4c(F)c(-c5cccc(C#N)c5C)c(Cl)cc4c32)C[C@H]1CC#N [Example 115, 3-(1-((2S,4S)-1-acryloyl-2-(cyanomethyl)piperidin-4-yl)-8-chloro-4-(3-(dimethylamino)azetidin-1-yl)-6-fluoro-1H-[1,2,3]triazolo[4,5-c]quinolin-7-yl)-2-methylbenzonitrile]
